According to BindingDB's records for doi:10.1021/jm00392a014 (1987):

Target: not listed separately
Experiment: Compound was tested for inhibition of Leucine aminopeptidase isolated from porcine kidney; Inhibitor exhibits slow-binding behavior(k on <=1000Me-1Se-1)

First: CCC(N)P(=O)(O)O (centres undefined) [1-aminopropylphosphonic acid]
Second: CCCCCCCC(N)P(=O)(O)O (centres undefined) [1-Ammonium-octane-1-phosphonic acid anion]
The Ki of the first is 7.7-fold higher: 3.6 µM for the first, 0.47 µM for the second. The second binds more tightly here.

In the case of `CC(C)C(N)P(=O)(O)O` (centres undefined) [1-amino-2-methylpropylphosphonic acid], the Ki is reported as 1.2 µM.

Target: Cytosol aminopeptidase (Sus scrofa) (UniProt P28839)
Experiment: as above

Sequence of Cytosol aminopeptidase (Sus scrofa) (P28839 whole entry, looked up): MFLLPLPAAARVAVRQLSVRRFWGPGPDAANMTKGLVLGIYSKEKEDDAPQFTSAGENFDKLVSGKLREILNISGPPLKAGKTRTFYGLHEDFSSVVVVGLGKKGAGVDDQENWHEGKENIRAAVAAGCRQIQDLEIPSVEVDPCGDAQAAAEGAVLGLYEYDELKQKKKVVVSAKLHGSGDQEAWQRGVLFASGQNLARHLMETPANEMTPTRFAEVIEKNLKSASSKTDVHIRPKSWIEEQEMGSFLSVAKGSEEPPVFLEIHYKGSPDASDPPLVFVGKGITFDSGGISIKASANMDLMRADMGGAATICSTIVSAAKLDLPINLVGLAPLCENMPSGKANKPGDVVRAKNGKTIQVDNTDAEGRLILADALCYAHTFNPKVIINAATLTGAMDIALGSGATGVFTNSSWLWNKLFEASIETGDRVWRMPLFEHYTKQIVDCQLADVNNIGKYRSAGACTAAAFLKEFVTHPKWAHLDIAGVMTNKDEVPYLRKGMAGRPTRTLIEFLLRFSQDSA

First: C[C@H](N)P(=O)(O)O [1-Ammonium-ethanephosphonic acid anion]
Second: CC(C)CCP(=O)(O)O [(3-Methyl-butyl)-phosphonic acid]
The Ki of the first is 3.2-fold lower: 240 µM for the first, 775 µM for the second.

Compared with `COP(=O)(O)C(N)CC(C)C` (centres undefined) [(1-Ammonium-3-methyl-butyl)-phosphonic acid monomethyl ester], `COP(=O)(C(=O)N[C@@H](CC(C)C)C(=O)O)C(N)CC(C)C` (stereo partly drawn) [2-(1-Ammonium-3-methylbutylmethoxyphosphorylcarbonylamino)-4-methyl-(2S)-pentanoate] is 5.2-fold higher in Ki: 320 µM for the first, 1650 µM for the second. The first binds more tightly here.

Compared with `CCCCCC(N)P(=O)(O)O` (centres undefined) [1-aminohexylphosphonic acid], `NCP(=O)(O)O` [Ammonium-methanephosphonic acid anion] is 1000-fold higher in Ki: 1 µM for the first, 1040 µM for the second.

Going from `CC(C)CCN` [3-Methyl-butylamine] to `CC(C)CC(N)P(N)(=O)C(=O)N[C@@H](CC(C)C)C(=O)O` (stereo partly drawn) [1-[amino({[(1S)-1-carboxylateanion-3-methylbutyl]amino}carbonyl)phosphoryl]-3-methylbutan-1-aminium], the Ki falls from over 50000 µM to 40 µM. The second binds more tightly here.

First: N[C@H](Cc1ccccc1)P(=O)(O)O [(S)-1-Ammonium-2-phenyl-ethanephosphonic acid anion]
Second: N[C@@H](Cc1ccccc1)P(=O)(O)O [[(1R)-1-amino-2-phenylethyl]phosphonic acid]
The Ki of the first is 37-fold higher: 15.4 µM for the first, 0.42 µM for the second.

`COP(=O)(O)C(N)Cc1ccccc1` (centres undefined) [(1-Ammonium-2-phenyl-ethyl)-phosphonic acid monomethyl ester] gave a Ki of 43 µM.
